In patent US10053485B2, “Cytotoxic agents that preferentially target leukemia inhibitory factor (LIF) for the treatment of malignancies and as new contraceptive agents” (Evestra, Inc., priority 2015, dated 2018):

What was measured:
OVCAR-5 = experiment: NCI-60 screen, Ovarian Cancer panel; assay type: cell-based; settings: Homo sapiens, OVCAR-5, 48 h
HCC-2998 = experiment: NCI-60 screen, Colon Cancer panel; assay type: cell-based; settings: Homo sapiens, HCC 2998, 48 h
EKVX = experiment: NCI-60 screen, Non-Small Cell Lung Cancer panel; assay type: cell-based; settings: Homo sapiens, 48 h, read-out: GI50 (log10GI50) (converted)
[1] = test system: Ishikawa (Endometrial Cancer); experiment: Short term (72 h) cytotoxicity assay; assay type: cell-based; settings: Homo sapiens
M14 = experiment: NCI-60 screen, Melanoma panel; assay type: cell-based; settings: Homo sapiens, M14, 48 h
[2] = test system: various cancer cells lines; experiment: Cytotoxicity assays in various cancer cell lines; assay type: cell-based; settings: in words
Method: Briefly, 5×10^3 cells were seeded in 96-well plates and incubated with compounds (0.0001-10 μmol/L) or dimethyl sulfoxide (DMSO; 0.02% v/v) for 24, 48, and 72 hours at 37° C. and cell viability was measured using a Fluoroscan plate reader.

UACC-62 = experiment: NCI-60 screen, Melanoma panel; assay type: cell-based; settings: Homo sapiens, UACC-62, 48 h
LOX IMVI = experiment: NCI-60 screen, Melanoma panel; assay type: cell-based; settings: Homo sapiens, 48 h
KM12 = experiment: NCI-60 screen, Colon Cancer panel; assay type: cell-based; settings: Homo sapiens, KM12, 48 h
COLO 205 = experiment: NCI-60 screen, Colon Cancer panel; assay type: cell-based; settings: Homo sapiens, COLO 205, 48 h
HOP-62 = experiment: NCI-60 screen, Non-Small Cell Lung Cancer panel; assay type: cell-based; settings: Homo sapiens, HOP-62, 48 h, read-out: GI50 (log10GI50) (converted)
TK-10 = experiment: NCI-60 screen, Renal Cancer panel; assay type: cell-based; settings: Homo sapiens, TK-10, 48 h
MDA-MB-468 = experiment: NCI-60 screen, Breast Cancer panel; assay type: cell-based; settings: Homo sapiens, MDA-MB-468, 48 h
Method: EC 330 was also tested using the NCI-60 Screening Methodology. The human tumor cell lines of the cancer screening panel are grown in RPMI 1640 medium containing 5% fetal bovine serum and 2 mM L-glutamine. For a typical screening experiment, cells are inoculated into 96 well microtiter plates in 100 μL at plating densities ranging from 5,000 to 40,000 cells/well depending on the doubling time of individual cell lines. After cell inoculation, the microtiter plates are incubated at 37° C., 5% CO2, 95% air and 100% relative humidity for 24 h prior to addition of experimental drugs. […]
Following drug addition, the plates are incubated for an additional 48 h at 37° C., 5% CO2, 95% air, and 100% relative humidity. […] Bound stain is subsequently solubilized with 10 mM trizma base, and the absorbance is read on an automated plate reader at a wavelength of 515 nm. […] Using the seven absorbance measurements [time zero, (Tz), control growth, (C), and test growth in the presence of drug at the five concentration levels (Ti)], the percentage growth is calculated at each of the drug concentrations levels. Percentage growth inhibition is calculated as: [(Ti−Tz)/(C−Tz)]×100 for concentrations for which Ti>/=Tz [(Ti−Tz)/Tz]×100 for concentrations for which Ti<Tz.
Three dose response parameters are calculated for each experimental agent. […]

U251 (Glioma) = experiment: Short term (72 h) cytotoxicity assay; assay type: cell-based, human; settings: Homo sapiens, U-251; U251, 72 h cytotoxicity
SF-295 = experiment: NCI-60 screen, CNS Cancer panel; assay type: cell-based; settings: Homo sapiens, SF-295, 48 h
MOLT-4 = experiment: NCI-60 screen, Leukemia panel; assay type: cell-based; settings: Homo sapiens, MOLT-4, 48 h
[3] = read-out: GI50 (log10GI50) (converted)
[4] = read-out: LC50 (log10LC50) (converted)

SMILES: C#CC(F)(F)[C@]1(O)CCC2C3CCC4=CC(=O)CCC4=C3C(c3ccc(C4CC4)cc3)C[C@@]21C (stereo partly drawn) [EC330, 17α-(1,1-difluoro-2-propyn-1-yl)-17β-hydroxy-11β-[4-p-(cyclopropyl)phenyl]estra-4,9-dien-3-one]
- GI50 (OVCAR-5; [3]): 1.07 µM
- CC50 (OVCAR-5; [4]): > 100 µM
- GI50 (HCC-2998; [3]): 2.95 µM
- CC50 (HCC-2998; [4]): > 100 µM
- GI50 (EKVX): < 0.01 µM
- IC50 [1]: 0.005 µM
- GI50 (M14; [3]): 2.75 µM
- CC50 (M14; [4]): > 100 µM
- IC50's in cytotoxicity assays [2]: low nanomolar
- GI50 (UACC-62; [3]): 1.95 µM
- CC50 (UACC-62; [4]): > 100 µM
- GI50 (LOX IMVI; [3]): < 0.01 µM
- CC50 (LOX IMVI; [4]): < 0.01 µM
- GI50 (KM12; [3]): < 0.01 µM
- CC50 (KM12; [4]): 44.7 µM
- GI50 (COLO 205; [3]): 0.794 µM
- CC50 (COLO 205; [4]): 8.91 µM
- GI50 (HOP-62): 0.0141 µM
- GI50 (TK-10; [3]): 2.63 µM
- CC50 (TK-10; [4]): > 100 µM
- CC50 (MDA-MB-468; [4]): 50.1 µM
- GI50 (MDA-MB-468; SRB, read-out: GI50 (log10GI50) (converted)): 0.204 µM
- IC50 (U251 (Glioma)): 0.02 µM
- GI50 (SF-295; [3]): < 0.01 µM
- CC50 (SF-295; [4]): < 0.01 µM
- GI50 (MOLT-4; [3]): 1.7 µM
- CC50 (MOLT-4; [4]): > 100 µM
